Experimental data taken from patent US8404650B2, “Methods of treating cancer with doxazolidine and prodrugs thereof” (priority 2005, dated 2013).

Columns and labels:
Vero cells = assay: Growth inhibition of Vero cells as a measure of normal cell toxicity (MTT); type: cell-based, green monkey
Description: (§1) Cell growth inhibition experiments initially focused on MCF-7, MCF-7/Adr, SK-HEP-1, and Hep G2 cancer cells as well as rat cardiomyocytes as a measure of cardiotoxicity and Vero cells (green monkey kidney cells) as an additional measure of normal cell toxicity.
(§2) SHP-77 small cell lung cancer cells were also of interest because they express modest amounts of both enzymes. Inhibition of the growth of cardiomyocytes was used as a measure of cardiotoxicity, and inhibition of the growth of Vero cells, green monkey kidney cells, was again used as another measure of toxicity to normal cells.

MCF-7/Adr = assay: Growth inhibition of multidrug resistant MCF-7/Adr breast cancer cells (crystal violet); type: cell-based
Protocol: (§3) In vitro Activity. […] This cell suspension was dispensed in 200 μL aliquots (1000 cells/well) into the inside wells of 96-well tissue culture plates. Outside wells contained 200 μL of media. […] The medium was replaced with 90 μL of growth medium prior to addition of the drug. Doxaz was dissolved in DMSO at concentrations ranging from 50 μM to 1 mM. […] Serial dilutions (1:3 and 1:10) were made in sterile DMSO to yield seven solutions of decreasing drug concentration at 100× the respective working concentrations. […] Additionally, two lanes were treated with 10 μL of growth medium containing 10% sterile DMSO and one lane was treated with 90 μL of 1.5 M Tris HCl. […]
as §1
(§4) Activity of plasmin-activated prodrugs.
(§5) A more thorough characterization of the growth inhibition of a variety of cancer cells as well as rat cardiomyocytes by Formula IV (aFK-PABC-Doxaz) was evaluated in comparison with inhibition of growth by Doxaz, Dox and aFK-PABC-Dox. Cells were treated with drug for 3 h and colony growth was measured at 3 to 5 days when cells reached about 80% confluence. […] The breast cancer cell lines represent the multi-drug resistant (MDR) phenotype with MCF-7/Adr cells and a cell line that is transfected with the gene for urokinase plasminogen activator (uPA), the primary enzyme responsible for cleavage of plasminogen to plasmin. Rat cardiomyocytes served as a model for comparison of drug cardiotoxicity.

MCF-7 = assay: Growth inhibition of MCF-7 sensitive breast cancer cells (colony formation, crystal violet); type: cell-based, human
Protocol: as §3, §1, §4, §5

SHP-77 = assay: Growth inhibition of SHP-77 small cell lung cancer cells; type: cell-based; settings: 24 h drug treatment; crystal violet
Description: as §2

DU-145 = assay: Growth inhibition of DU-145 prostate cancer cells; type: cell-based
Protocol: as §3, §2
as §5, with “Cells were treated with drug for 3 h and colony growth was measured at 3 to 5 days when cells reached about 80% confluence.” left out

Hep G2 = assay: Growth inhibition of Hep G2 liver cancer cells; type: cell-based, human; settings: crystal violet
Description: (§6) Cell growth inhibition experiments initially focused on MCF-7, MCF-7/Adr, SK-HEP-1, and Hep G2 cancer cells as well as rat cardiomyocytes as a measure of cardiotoxicity and Vero cells (green monkey kidney cells) as an additional measure of normal cell toxicity. […]

[1] = Hydrolytic stability of Doxaz carbamate prodrugs in aqueous media; type: physicochemical; settings: pH 7.4 buffer, no cells or growth media, 24 h, ambient temperature, HPLC
[2] = system: H9c2(2-1) rat cardiomyocytes; assay: Growth inhibition of rat cardiomyocytes as a measure of cardiotoxicity; type: cell-based; settings: 24 h drug treatment; crystal violet
Protocol: Biological activity of simple Doxazolidine carbamates. Since the prodrug carbamates were designed to be activated by carboxylesterases CES1 (hCE1) and/or CES2 (hiCE), cell lines of interest were measured for expression of the respective mRNAs using reverse transcription (RT) followed by PCR (polymerase chain reaction). Cancer cell lines investigated included SHP-77 resistant small cell lung, DU-145 prostate, MCF-7 sensitive breast, MCF-7/Adr resistant breast, SK-HEP-1 liver, and Hep G2 liver cells. As a measure of possible cardiotoxicity, H9c2(2-1) rat cardiomyocytes were also investigated. Cardiotoxicity is relevant because the ultimate product of metabolism and subsequent hydrolysis of these carbamates is doxorubicin, which is cardiotoxic. […] Additionally, the rat cardiomyocytes, H9c2(2-1), also express more CES2 than CES1.
Cell growth inhibition experiments initially focused on MCF-7, MCF-7/Adr, SK-HEP-1, and Hep G2 cancer cells as well as rat cardiomyocytes as a measure of cardiotoxicity and Vero cells (green monkey kidney cells) as an additional measure of normal cell toxicity. The butyl and pentyl carbamates inhibited the growth of MCF-7, MCF-7/Adr, and SK-HEP-1 cell lines with a 24 h drug treatment period with some selectivity for cancer cells over cardiomyocytes relative to growth inhibition by Dox as shown in Table 2. […] The relative inactivity of the ethyl carbamate may indicate that a substantial lipophilic interaction is required at the active site of the carboxylesterases to hold the Doxaz substrate.
Biological activity of Doxazolidine carbamates with self-eliminating spacer. […] SHP-77 small cell lung cancer cells were also of interest because they express modest amounts of both enzymes. Inhibition of the growth of cardiomyocytes was used as a measure of cardiotoxicity, and inhibition of the growth of Vero cells, green monkey kidney cells, was again used as another measure of toxicity to normal cells. They also show more activity against the cancer cells that express higher levels of CES1. Of particular note is the higher activity against Hep G2 cells than against SK-HEP-1 cells. […] The low toxicity of pentyl PABC-Doxaz to cardiomyocytes relative to the toxicity of Dox is encouraging and consistent with the low level of expression of CES1 in cardiomyocytes.
A more thorough characterization of the growth inhibition of a variety of cancer cells as well as rat cardiomyocytes by Formula IV (aFK-PABC-Doxaz) was evaluated in comparison with inhibition of growth by Doxaz, Dox and aFK-PABC-Dox. Cells were treated with drug for 3 h and colony growth was measured at 3 to 5 days when cells reached about 80% confluence. The cancer cells included one prostate cancer cell line (DU-145), three related breast cancer cell lines (MCF-7, MCF-7/Adr, and MCF-7 uPA), and one pancreatic cancer cell line (Mia PaCa-2). The breast cancer cell lines represent the multi-drug resistant (MDR) phenotype with MCF-7/Adr cells and a cell line that is transfected with the gene for urokinase plasminogen activator (uPA), the primary enzyme responsible for cleavage of plasminogen to plasmin. Rat cardiomyocytes served as a model for comparison of drug cardiotoxicity. Growth inhibition was also measured with added plasmin. aFK-PABC-Doxaz inhibited the growth of most of the cancer cells 0.5 log or more better than did aFK-PABA-Dox. Although not as dramatic, this differential response paralleled the differential response between Doxaz and Dox which is approximately two logs except for the MDR expressing, MCF-7/Adr cells which show more than three logs differential response. […] Addition of 0.01 unit/mL of plasmin has no effect on the activity of Dox but increases the activity of both aFK-PABC-Doxaz and aFK-PABC-Dox, in some cases by more than a log. Addition of 0.01 unit/mL plasminogen increases the activity of aFK-PABC-Doxaz on average by 0.3 log. […]

[3] = Uptake of pentyl carbamate relative to Dox, flow cytometry, with and without fetal bovine serum; type: cell-based
Protocol: Uptake of the pentyl carbamate relative to uptake of Dox was measured by flow cytometry, monitoring fluorescence of the Dox fluorophore as a measure of drug in cells. The measurements were performed over a period of 3 h in the presence and absence of fetal bovine serum, and the results are shown in FIG. 4. […] Further, the presence of 10% fetal bovine serum decreased the uptake of doxorubicin and the pentyl carbamate by about 25%. The more rapid uptake of the pentyl carbamate in the presence and absence of serum probably reflects its increased hydrophobicity relative to that of doxorubicin which is a cation at physiological pH. Increased hydrophobicity may also be the explanation for the effect of serum on the uptake of the carbamate; namely, the carbamate binds to serum proteins reducing drug uptake.

SK-HEP-1 = assay: Growth inhibition of SK-HEP-1 liver cancer cells; type: cell-based, human; settings: crystal violet
Description: as §6

[4] = buffer; cited from earlier work
cancer cells = settings: background statement; cited from earlier work
αvβ3 integrin = αvβ3 integrin (Homo sapiens, UniProt P05106+P06756); settings: cited from earlier work
αvβ3 integrin, sequence (P06756 31-889 limits assumed): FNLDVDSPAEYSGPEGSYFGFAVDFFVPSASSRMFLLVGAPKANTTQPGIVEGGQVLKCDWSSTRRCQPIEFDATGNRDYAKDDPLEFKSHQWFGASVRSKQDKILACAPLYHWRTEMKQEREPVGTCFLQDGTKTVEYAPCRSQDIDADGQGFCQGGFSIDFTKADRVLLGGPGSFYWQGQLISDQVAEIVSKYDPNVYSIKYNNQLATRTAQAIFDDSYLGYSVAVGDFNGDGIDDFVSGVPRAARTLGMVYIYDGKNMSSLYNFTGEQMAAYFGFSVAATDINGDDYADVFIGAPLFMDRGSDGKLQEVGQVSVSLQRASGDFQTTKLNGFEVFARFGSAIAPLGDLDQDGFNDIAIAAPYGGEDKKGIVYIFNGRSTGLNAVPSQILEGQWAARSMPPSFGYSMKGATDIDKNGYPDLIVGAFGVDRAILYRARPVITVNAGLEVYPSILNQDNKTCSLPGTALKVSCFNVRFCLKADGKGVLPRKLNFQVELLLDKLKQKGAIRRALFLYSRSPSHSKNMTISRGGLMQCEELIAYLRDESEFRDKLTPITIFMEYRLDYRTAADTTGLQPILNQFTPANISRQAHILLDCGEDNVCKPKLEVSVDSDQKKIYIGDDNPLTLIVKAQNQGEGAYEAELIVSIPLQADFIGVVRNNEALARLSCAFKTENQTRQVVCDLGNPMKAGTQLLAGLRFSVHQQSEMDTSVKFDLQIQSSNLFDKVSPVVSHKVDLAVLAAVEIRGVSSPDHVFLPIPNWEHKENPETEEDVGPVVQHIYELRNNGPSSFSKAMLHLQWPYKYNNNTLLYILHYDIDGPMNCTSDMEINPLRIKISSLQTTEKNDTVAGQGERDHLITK
αvβ3 integrin, sequence (P06756 891-1048 partner limits assumed): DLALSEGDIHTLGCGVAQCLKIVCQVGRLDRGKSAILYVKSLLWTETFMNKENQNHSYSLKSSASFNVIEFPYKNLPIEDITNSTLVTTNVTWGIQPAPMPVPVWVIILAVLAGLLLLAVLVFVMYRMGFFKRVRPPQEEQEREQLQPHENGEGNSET
αvβ3 integrin, sequence (P05106 27-788): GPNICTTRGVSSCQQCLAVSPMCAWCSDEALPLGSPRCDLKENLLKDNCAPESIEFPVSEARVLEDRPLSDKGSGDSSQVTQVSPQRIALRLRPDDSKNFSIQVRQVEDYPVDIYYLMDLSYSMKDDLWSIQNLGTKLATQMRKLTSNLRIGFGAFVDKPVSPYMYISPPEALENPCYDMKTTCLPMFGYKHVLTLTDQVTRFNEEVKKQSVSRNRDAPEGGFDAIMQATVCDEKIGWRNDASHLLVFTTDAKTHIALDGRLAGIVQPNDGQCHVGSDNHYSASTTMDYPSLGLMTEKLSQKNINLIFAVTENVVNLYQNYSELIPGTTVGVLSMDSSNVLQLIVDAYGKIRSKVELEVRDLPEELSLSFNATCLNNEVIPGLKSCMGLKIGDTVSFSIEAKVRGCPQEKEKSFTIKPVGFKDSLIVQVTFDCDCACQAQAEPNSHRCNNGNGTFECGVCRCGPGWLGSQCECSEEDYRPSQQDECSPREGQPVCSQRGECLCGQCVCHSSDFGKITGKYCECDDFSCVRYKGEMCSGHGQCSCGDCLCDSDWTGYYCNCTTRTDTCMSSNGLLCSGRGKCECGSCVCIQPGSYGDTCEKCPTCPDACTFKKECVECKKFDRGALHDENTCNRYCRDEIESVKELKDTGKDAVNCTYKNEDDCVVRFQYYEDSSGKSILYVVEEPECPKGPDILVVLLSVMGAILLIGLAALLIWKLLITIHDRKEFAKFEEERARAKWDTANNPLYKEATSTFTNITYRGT

[5] = 24 h drug treatment, crystal violet

Compound: CCCCCOC(=O)N1COC2C(C)OC(OC3CC(O)(C(=O)CO)Cc4c(O)c5c(c(O)c43)C(=O)c3c(OC)cccc3C5=O)CC21 (stereo not drawn) [Doxaz Pentyl Carbamate]
- Growth inhibition IC50, Vero, 3 h (Vero cells; 3 h drug treatment): −5.4 ± 0.1 log of the molar concentration
- Growth inhibition IC50, Vero, 24 h (Vero cells; 24 h drug treatment): −5.3 ± 0.01 log of the molar concentration
- Growth inhibition IC50, MCF-7/Adr, 24 h (MCF-7/Adr; [5]): −6.0 ± 0.09 log of the molar concentration
- Growth inhibition IC50, MCF-7, 3 h (MCF-7; 3 h drug treatment, crystal violet): >−6 log of the molar concentration
- Growth inhibition IC50, MCF-7, 24 h (MCF-7; [5]): −6.1 ± 0.03 log of the molar concentration
- Cell growth inhibition IC50, SHP-77 (SHP-77): −6.3 ± 0.3 log of molar concentrations
- Cell growth inhibition IC50, DU-145 (DU-145; [5]): −6.0 ± 0.04 log of molar concentrations
- Growth inhibition IC50, Hep G2, 3 h (Hep G2; 3 h drug treatment): >−6 log of the molar concentration
- Growth inhibition IC50, Hep G2, 24 h (Hep G2; 24 h drug treatment): −6.5 ± 0.3 log of the molar concentration
- Stability to hydrolysis in buffer [1]: stable to hydrolysis
- Growth inhibition IC50, H9c2(2-1), 24 h [2]: −6.6 ± 0.1 log of the molar concentration
- Decrease of uptake by 10% fetal bovine serum ([3]; 10% fetal bovine serum, flow cytometry, 3 h): about 25%
- Uptake relative to Dox ([3]; flow cytometry over 3 h, with and without serum): taken up at a higher level and more rapidly than Dox
- Growth inhibition IC50, SK-HEP-1, 3 h (SK-HEP-1; 3 h drug treatment): >−6 log of the molar concentration
- Growth inhibition IC50, SK-HEP-1, 24 h (SK-HEP-1; 24 h drug treatment): −6.7 ± 0.1 log of the molar concentration

Compound: COc1cccc2c1C(=O)c1c(O)c3c(c(O)c1C2=O)C[C@@](O)(C(=O)CO)C[C@@H]3O[C@H]1C[C@H]2C(OCN3CN2CO[C@H]2[C@@H](C)O[C@@H](O[C@H]4C[C@](O)(C(=O)CO)Cc5c(O)c6c(c(O)c54)C(=O)c4c(OC)cccc4C6=O)C[C@@H]23)[C@H](C)O1 (stereo partly drawn) [EpiF, Epidoxoform, reference compound]
- IC50 (MCF-7/Adr; Homo sapiens, NCI/ADR-RES, 3 h, read-out: IC50 MCF-7/Adr): 70 nM
- IC50 (MCF-7; Homo sapiens, MCF7, 3 h, read-out: IC50 MCF-7): 65 nM
- Half-life, stability in water with respect to loss of formaldehyde [4]: 2 h
- IC50 (DU-145; Homo sapiens, DU-145, 3 h, read-out: IC50 DU-145): 26 ± 5 nM
- Less active than DoxF in cancer cell growth inhibition (cancer cells): 50 fold

Compound: Lys-Arg-Gly-Asp-phe (KRGD; C-terminal D-Phe; printed: Lys-Arg-Gly-Asp-) [KRGDf]
- Specificity for αvβ3 over αIIbβ3 platelet receptor (αvβ3 integrin): 1000 fold
